Consider 52 compounds from US11414431B2, “Substituted pyrazolo[1,5-a]pyrimidines as TYK2 inhibitors” (Nimbus Lakshmi, Inc., priority 2018, dated 2022).

SMILES strings stand for the structures. Bounds are passed on as bounds.

One experiment has as its system IL-12 induced STAT4 phosphorlyation mediated by TYK2/JAK2. Briefly: IL-12 Induced pSTAT4 in Human PBMC. The format is cell-based. The settings on record: 1.7 ng/mL IL-12 for 30 minutes. The method, then:
Human PBMC were isolated from buffy coat and are stored frozen for assays as needed. […] 15 μL of compound or DMSO was added to the well at the desired concentrations and incubated at 1 hr at 37° C. 15 μL of stimulus (final concentration of 1.7 ng/mL IL-12) was added for 30 minutes prior to pSTAT4 and total STAT4 analysis using cell lysates prepared and analyzed by MSD reagents as per manufacturer protocol. The final DMSO concentration of compound in the assay was 0.1%.
The IL-12 induced pSTAT4 assay evaluates the inhibition of IL-12 induced STAT4 phosphorlyation mediated by TYK2/JAK2 (heterpdimeric complex).
In general, IC50 refers to the midpoint of a concentration-inhibition curve. As to `CNc1cc(-c2cn([C@@H]3CN(C)C[C@H]3OC)c3ncccc23)nc2c(C(=O)N[C@H]3CC[C@@H]3OC)cnn12` [Compound I-646], the IC50 is below 0.1 µM.

In turn, `CNc1cc(-c2cnc3n([C@@H]4COC[C@H]4OC)cccc2-3)nc2c(C(=O)NC3CC[C@@H]3F)cnn12` (stereo partly shown) [Compound I-835] came in with a half-inhibitory concentration (IC50) below 0.1 µM.

In turn, `CNc1cc(-c2cn(CC(=O)N(C)C)c3ncccc23)nc2c(C(=O)N[C@H]3CC[C@@H]3OC)cnn12` [Compound I-921] gave an IC50 below 0.1 µM.

In turn, `CNc1cc(-c2cn([C@@H]3COC[C@H]3OC)c3ncccc23)nc2c(C(=O)NC3CC[C@@H]3OC)cnn12` (stereo partly shown) [Compound I-636] returned a 50% inhibitory concentration (IC50) below 0.1 µM.

For the compound `CNc1cc(-c2cnc3n([C@@H]4COC[C@H]4O)cccc2-3)nc2c(C(=O)NC3CC[C@@H]3F)cnn12` (stereo partly shown) [Compound I-827], the IC50 was below 0.1 µM.

Compound `CNc1cc(-c2cn(C3CCCC3)c3ncccc23)nc2c(C(=O)NC3CCC3(F)F)cnn12` (stereo not shown) [Compound I-683] returned an IC50 below 0.1 µM.

With `CNc1cc(-c2cn([C@@H]3CCN(C)C3)c3ncccc23)nc2c(C(=O)N[C@H]3CC[C@@H]3OC)cnn12` [Compound I-616], the half-inhibitory concentration (IC50) is below 0.1 µM.

As to `CNc1cc(-c2cn([C@H]3C[C@@H](COC)C3)c3ncccc23)nc2c(C(=O)NC3CC[C@H]3O)cnn12` (stereo partly shown) [Compound I-912], the IC50 is below 0.1 µM.

`CNc1cc(-c2cn([C@H]3CCC4(C3)OCCO4)c3ncccc23)nc2c(C(=O)N[C@H]3CC[C@@H]3OC)cnn12` [Compound I-808]: the 50% inhibitory concentration (IC50) is below 0.1 µM.

`CNc1cc(-c2cn(C3COC3)c3ncccc23)nc2c(C(=O)N[C@H]3CC[C@@H]3O)cnn12` [Compound I-558] gave an IC50 below 0.1 µM.

The compound `CNc1cc(-c2cn([C@@H]3CCC4(C3)OCCO4)c3ncccc23)nc2c(C(=O)N[C@H]3CC[C@@H]3OC)cnn12` [Compound I-806] yielded an IC50 below 0.1 µM.

As to `CNc1cc(Nc2cccn([C@H]3CC[C@H](OC)CC3)c2=O)nc2c(C(=O)NC3CC[C@@H]3F)cnn12` (stereo partly shown) [Compound I-224], the IC50 was below 0.1 µM.

Regarding `CNc1cc(-c2cn([C@@H]3CC3(F)F)c3ncccc23)nc2c(C(=O)N[C@@H]3COC[C@@H]3O)cnn12` [Compound I-713], the concentration for half-maximal inhibition (IC50) was in the range of 0.1 to 0.5 µM.

`CNc1cc(Nc2cccn([C@@H]3CCOC[C@@H]3OC)c2=O)nc2c(C(=O)N[C@@H]3CCC3(F)F)cnn12` [Compound I-338] displayed a 50% inhibitory concentration (IC50) below 0.1 µM.

`CNc1cc(Nc2cccn([C@@H]3CCC[C@H](C#N)C3)c2=O)nc2c(C(=O)N[C@H]3CCC3(F)F)cnn12` [Compound I-328]: the half-inhibitory concentration (IC50) is below 0.1 µM.

`CNc1cc(-c2cn([C@H]3CCOC3)c3ncccc23)nc2c(C(=O)NC3CC[C@@H]3OC)cnn12` (stereo partly shown) [Compound I-612] yielded an IC50 below 0.1 µM.

For `CNc1cc(Nc2cccn([C@H]3C[C@H](OC)C3)c2=O)nc2c(C(=O)N[C@H]3CCC3(F)F)cnn12` [Compound I-293], the IC50 was below 0.1 µM.

For the compound `CNc1ccc(-c2cc(NC)n3ncc(C(=O)NC4CC[C@H]4F)c3n2)n2ccnc12` (stereo partly shown) [Compound I-483], the IC50 was below 0.1 µM.

Compound `CNc1cc(Nc2cccn([C@H]3CC[C@H]3O)c2=O)nc2c(C(=O)N[C@@H]3CC[C@H]3F)cnn12` [Compound I-169] yielded an IC50 below 0.1 µM.

For `CNc1cc(Nc2cccn([C@H]3C[C@H](OC)C3)c2=O)nc2c(C(=O)N[C@H]3CC[C@@H]3OC)cnn12` [Compound I-255], the half-maximal inhibitory concentration (IC50) is below 0.1 µM.

As for `CNc1cc(Nc2cccn([C@H]3[C@@H]4COC[C@@H]43)c2=O)nc2c(C(=O)NC3CCC3(F)F)cnn12` (stereo partly shown) [Compound I-306], the IC50 is below 0.1 µM.

In the case of `CNc1cc(-c2cn([C@H]3C[C@@H](O)C3)c3ncccc23)nc2c(C(=O)N[C@H]3CC[C@@H]3F)cnn12` [Compound I-511], the IC50 was below 0.1 µM.

The compound `CNc1cc(Nc2cccn(-c3ccccn3)c2=O)nc2c(C(=O)N[C@@H]3CCC3(F)F)cnn12` [Compound I-320] yielded a 50% inhibitory concentration (IC50) below 0.1 µM.

Compound `CNc1cc(-c2cn(CC(=O)N3CCCC3)c3ncccc23)nc2c(C(=O)N[C@H]3CC[C@@H]3OC)cnn12` [Compound I-965] displayed an IC50 below 0.1 µM.

As for `CNc1cc(-c2cn([C@H]3CCOC[C@@H]3F)c3ncccc23)nc2c(C(=O)N[C@H]3CC[C@@H]3OC)cnn12` [Compound I-802], the IC50 is below 0.1 µM.

Compound `CNc1cc(-c2cnc3n([C@@H]4COC[C@H]4O)cccc2-3)nc2c(C(=O)N[C@@H]3CC[C@H]3OC)cnn12` [Compound I-876] displayed a half-maximal inhibitory concentration (IC50) below 0.1 µM.

In the case of `CNc1cc(-c2cn([C@H]3COC[C@H]3F)c3ncccc23)nc2c(C(=O)NC3CC[C@H]3O)cnn12` (stereo partly shown) [Compound I-573], the concentration for half-maximal inhibition (IC50) was below 0.1 µM.

Compound `CO[C@H]1CC[C@@H]1NC(=O)c1cnn2c(N)cc(-c3cnc4n([C@H]5COC[C@@H]5OC)cccc3-4)nc12` [Compound I-1006] gave an IC50 below 0.1 µM.

Consider `CNc1cc(-c2cnc3n([C@@H]4COC[C@H]4OC)cccc2-3)nc2c(C(=O)N[C@@H]3CC[C@@H]3O)cnn12` [Compound I-867], for which the IC50 lay within 0.1 to 0.5 µM.

For the compound `CNc1cc(-c2cn([C@H]3CC3(F)F)c3ncccc23)nc2c(C(=O)N[C@@H]3COC[C@@H]3O)cnn12` [Compound I-711], the IC50 was below 0.1 µM.

Turning to `CNc1cc(-c2cnc3n([C@@H]4CN(C)C[C@H]4OC)cccc2-3)nc2c(C(=O)N[C@H]3CC[C@@H]3OC)cnn12` [Compound I-944], the IC50 is below 0.1 µM.

On to `CNc1cc(-c2cn([C@@H]3CCOC[C@H]3F)c3ncccc23)nc2c(C(=O)N[C@H]3CC[C@@H]3OC)cnn12` [Compound I-804], for which the IC50 is below 0.1 µM.

Compound `CNc1cc(Nc2cccn([C@H]3[C@@H]4COC[C@@H]43)c2=O)nc2c(C(=O)NC3CC[C@@H]3F)cnn12` (stereo partly shown) [Compound I-206] came in with an IC50 below 0.1 µM.

For the compound `CNc1cc(Nc2cccn([C@H]3CCCOC3)c2=O)nc2c(C(=O)N[C@H]3CC[C@@H]3F)cnn12` [Compound I-198], the IC50 was below 0.1 µM.

In turn, `CNc1cc(-c2cn(CCOC)c3ncccc23)nc2c(C(=O)N[C@H]3CC[C@@H]3OC)cnn12` [Compound I-923] came in with a 50% inhibitory concentration (IC50) below 0.1 µM.

With `CNc1cc(Nc2cccn(C3CCOCC3)c2=O)nc2c(C(=O)NC3CC[C@]3(C)O)cnn12` (stereo partly shown) [Compound I-348], the half-maximal inhibitory concentration (IC50) is below 0.1 µM.

`CNc1cc(-c2cnc3n([C@H]4COC[C@@H]4OC)cccc2-3)nc2c(C(=O)NC3CC[C@@H]3OC)cnn12` (stereo partly shown) [Compound I-880]: the 50% inhibitory concentration (IC50) was below 0.1 µM.

In the case of `CNc1cc(-c2cnc3n([C@H]4CN(C)C[C@@H]4OC)cccc2-3)nc2c(C(=O)N[C@H]3CC[C@@H]3OC)cnn12` [Compound I-947], the IC50 was below 0.1 µM.

For the compound `CNc1cc(-c2cnc3n([C@H]4COC[C@@H]4OC)cccc2-3)nc2c(C(=O)N[C@H]3CC[C@H]3F)cnn12` [Compound I-839], the half-maximal inhibitory concentration (IC50) was below 0.1 µM.

In turn, `CNc1cc(Nc2cccn([C@H]3CC[C@@H]3OC)c2=O)nc2c(C(=O)NC3CC[C@H]3O)cnn12` (stereo partly shown) [Compound I-239] came in with a half-inhibitory concentration (IC50) below 0.1 µM.

Consider `CNc1cc(-c2cn([C@@H]3COC[C@H]3OC)c3ccccc23)nc2c(C(=O)N[C@@H]3CC[C@H]3OC)cnn12` [Compound I-746], for which the concentration for half-maximal inhibition (IC50) was below 0.1 µM.

`CNc1cc(-c2cnc3n([C@H]4COC[C@@H]4O)cccc2-3)nc2c(C(=O)NC3CC[C@@H]3OC)cnn12` (stereo partly shown) [Compound I-877]: the IC50 is 0.1 to 0.5 µM.

In turn, `CNc1cc(-c2cn(CC(=O)N3CCOCC3)c3ncccc23)nc2c(C(=O)N[C@H]3CC[C@@H]3OC)cnn12` [Compound I-963] displayed a concentration for half-maximal inhibition (IC50) of 0.1 to 0.5 µM.

`CNc1cc(Nc2cccn(C3CCOCC3)c2=O)nc2c(C(=O)N[C@H]3CC[C@]3(C)O)cnn12` [Compound I-349] displayed a concentration for half-maximal inhibition (IC50) below 0.1 µM.

For the compound `CNc1cc(-c2cn(CC(=O)N3CCCC3)c3ncccc23)nc2c(C(=O)NC3CC[C@@H]3OC)cnn12` (stereo partly shown) [Compound I-931], the IC50 fell in the range of 0.1 to 0.5 µM.

`CNc1cc(-c2cn([C@H]3COC[C@@H]3OC)c3ccccc23)nc2c(C(=O)NC3CC[C@@H]3OC)cnn12` (stereo partly shown) [Compound I-741] had an IC50 below 0.1 µM.

Take `CNc1cc(-c2cnc3n(CC(C)(C)O)cccc2-3)nc2c(C(=O)N[C@H]3CC[C@@H]3OC)cnn12` [Compound I-983]: the IC50 was below 0.1 µM.

On to `CNc1cc(-c2cnc3n(CC(=O)N4CCC4)cccc2-3)nc2c(C(=O)N[C@H]3CC[C@@H]3OC)cnn12` [Compound I-977], for which the IC50 was above 1 µM.

Take `CNc1cc(-c2cn([C@@H]3CCOC[C@H]3F)c3ncccc23)nc2c(C(=O)N[C@H]3COC[C@H]3O)cnn12` [Compound I-937]: the concentration for half-maximal inhibition (IC50) is 0.1 to 0.5 µM.

Staying with this experiment, now noted: 0.5 h, 1.7 ng/mL IL-12 for 30 minutes.
For `CNc1cc(-c2cn([C@H]3CN(C)C[C@@H]3F)c3ncccc23)nc2c(C(=O)NC3CC[C@@H]3OC)cnn12` (stereo partly drawn) [Compound I-639, 5-(1-((3S,4S)-4-Fluoro-1-methylpyrrolidin-3-yl)-1H-pyrrolo[2,3-b]pyridin-3-yl)-N-((trans-1,2)-2-methoxycyclobutyl)-7-(methylamino)pyrazolo[1,5-a]pyrimidine-3-carboxamide], the IC50 was below 0.1 µM.

`CNc1cc(-c2cn([C@@H]3CC(=O)N(C)C3)c3ncccc23)nc2c(C(=O)NC3CC[C@@H]3OC)cnn12` (stereo partly drawn) [Compound I-1016, N-(2-methoxycyclobutyl)-5-(1-((R)-1-methyl-5-oxopyrrolidin-3-yl)-1H-pyrrolo[2,3-b]pyridin-3-yl)-7-(methylamino)pyrazolo[1,5-a]pyrimidine-3-carboxamide] registered an IC50 of 0.1 to 0.5 µM.

For `O=C(NC1CCC1(F)F)c1cnn2c3c(c(-c4cn([C@H]5C[C@H](O)C5)c5ncccc45)nc12)OCCN3` (stereo partly drawn) [Compound I-775, N-(2,2-Difluorocyclobutyl)-5-(1-((1r,3S)-3-hydroxycyclobutyl)-1H-pyrrolo[2,3-b]pyridin-3-yl)-2,3-dihydro-1H-pyrazolo[5′,1′:2,3]pyrimido [5,4-b][1,4]oxazine-7-carboxamide], the IC50 is below 0.1 µM.
